These results are taken from the NIST ThermoML archive (doi:10.1021/je034228o).

Each structure is given as a SMILES string. Numbers after ± are expanded uncertainties.

The conditions of this data set: Crystal; DTA.

Consider `CC(C)Cc1ccc(C(C)C(=O)O)cc1` (configuration not stated) [ibuprofen], for which the Normal melting temperature worked out at 76.1 ± 0.5 °C. Turning to `CC(C)Cc1ccc([C@H](C)C(=O)O)cc1` [(S)-2-(4-isobutylphenyl)propanoic acid], the Normal melting temperature was 51.1 ± 0.5 °C.
